42 compounds from patent EP2678315B1, “(Pyridin-4-yl)benzylamides as allosteric modulators of alpha 7 nAChR” (Janssen Pharmaceutica, N.V., priority 2011, dated 2012) can be followed below.

SMILES strings stand for the structures. Like-named read-outs stand apart in the source and are kept apart here.

For the assay, the target named is T1, human alpha 7-wt nAChR (Homo sapiens, UniProt P36544).
T1 construct: expressed in transfected cells
Nature of the assay: Ca2+ flux imaging (FDSS) (protocol B). It is filed as cell-based. To be noted: for EC50: read-out: pEC50 (converted); for Emax: read-out: % Efficacy. The protocol:
Example D.1 : Ca^2+ flux imaging (FDSS) (protocol B)
• a) Assay buffer Hanks buffered saline solution (HBSS, Invitrogen, Belgium), supplemented with 10 mM HEPES (Invitrogen, Belgium), CaCl2 to a final concentration of 5 mM, 0.1 % Bovine serum albumin (Sigma-Aldrich NV, Belgium). • b) Calcium-sensitive dye - Fluo-4AM Fluo-4AM (Molecular Probes, USA) was dissolved in DMSO containing 10% Pluronic acid (Molecular Probes, USA) to give a stock solution which was diluted in assay buffer supplemented with 5 mM probenicid (Sigma, Aldrich NV, Belgium) to give a final concentration of 2 µM • c) 384-well plates Black-sided, transparent bottomed 384 well plates coated with poly-D-lysine, PDL pre-coated (Coming, Incorporated, USA) • d) Calcium flux measurement A Functional drug screening system (FDSS, Hamamatsu) was used to measure intracellular free-calcium flux signals.
Monolayers of human alpha 7-wt nAChR-expressing cells were grown in black-sided, transparent bottomed 384 well plates coated with PDL for 24 hours prior to loading with a fluorescent calcium indicator, fluo-4AM for up to 120 minutes.
PAM activity was detected in real time by applying the compounds to be tested to the loaded cells along with an alpha 7 nicotinic receptor agonist during constant monitoring of cellular fluorescence in a FDSS. Compounds giving peak fluorescent responses greater than the response due to agonist alone, were consideted to be alpha 7 nAChR PAMs. The alpha 7 nicotinic receptor agonist was choline, applied at a sub-maximal concentration of 100 µM. In a further setting of the present invention the compounds were applied prior to the alpha 7 nicotinic receptor agonist, in a particular 10 minutes prior to the agonist.
A control response to choline was calculated on each plate from the difference in peak in fluorescence in wells receiving either choline or assay buffer alone. Compounds of the present invention were tested at a concentration range from 0.01 µM to 30 µM. Compounds were considered to have an interesting activity when they potentiated the choline signal at least with 200 % when tested at a concentration of 30 µM (the efficacy of 100 µM choline was defined as 100% in the absence of a PAM). An EC50 (or pEC50) was determined as a concentration relating to half the maximal effect, when a clear sigmoidal curve with top plateau was obtained.

T1 sequence (P36544 23-502): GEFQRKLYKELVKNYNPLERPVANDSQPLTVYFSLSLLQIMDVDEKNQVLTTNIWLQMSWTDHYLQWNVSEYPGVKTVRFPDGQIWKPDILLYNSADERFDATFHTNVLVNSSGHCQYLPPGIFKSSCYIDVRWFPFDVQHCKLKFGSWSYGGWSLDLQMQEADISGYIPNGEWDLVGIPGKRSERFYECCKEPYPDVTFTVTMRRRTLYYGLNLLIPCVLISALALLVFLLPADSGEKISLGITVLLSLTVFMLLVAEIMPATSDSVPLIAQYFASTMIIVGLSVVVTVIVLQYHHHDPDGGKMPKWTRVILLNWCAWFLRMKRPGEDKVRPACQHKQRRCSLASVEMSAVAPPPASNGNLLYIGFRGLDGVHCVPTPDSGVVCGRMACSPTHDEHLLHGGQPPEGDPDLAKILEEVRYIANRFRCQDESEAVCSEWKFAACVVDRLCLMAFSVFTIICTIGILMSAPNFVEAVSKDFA

For `Cc1cc(-c2ccc(N3C[C@@H](C)O[C@@H](C)C3)c(F)c2CNC(=O)C(C)C2CC2)cc(C)n1` (mixture of isomers) [Compound 50], for the setting “Ca2+ assay as described in D.1”, the EC50 is 479 nM.
For `Cc1cc(-c2ccc(N3C[C@@H](C)O[C@@H](C)C3)cc2CNC(=O)C(C)C2CC2)cc(C)n1` (relative stereo) [Compound 8], the Emax stood at 353%. Also, the EC50 (Ca2+ assay as described in D.1) is 24 nM.
For the compound `Cc1cc(-c2ccc(C3C[C@@H](C)O[C@@H](C)C3)c(F)c2CNC(=O)CC2CC2)cc(C)n1` (relative stereo) [Compound 53], for the setting “Ca2+ assay as described in D.1”, the EC50 is 457 nM.
Regarding `Cc1cc(-c2ccc(C3C[C@@H](C)O[C@@H](C)C3)c(F)c2CNC(=O)C2CC2)cc(C)n1` (relative stereo) [Compound 54], the EC50 (Ca2+ assay as described in D.1) was 1580 nM.
Take `Cc1cc(-c2ccc(C3C[C@@H](C)O[C@@H](C)C3)c(F)c2CNC(=O)CC(C)C)cc(C)n1` (relative stereo) [Compound 55]: the Emax is 890%. For the setting “Ca2+ assay as described in D.1”, the EC50 is 229 nM.
`Cc1cc(-c2ccc(C3C[C@@H](C)O[C@@H](C)C3)c(F)c2CNC(=O)CC2CCC2)cc(C)n1` (relative stereo) [Compound 60]: the EC50 (Ca2+ assay as described in D.1) is 178 nM.
The same measure, in the same setting: in the case of `Cc1cc(-c2ccc(C3C[C@@H](C)O[C@@H](C)C3)c(F)c2CNC(=O)C(C)C)cc(C)n1` (relative stereo) [Compound 61] it was 871 nM; in that of `Cc1cc(-c2ccc(C3C[C@@H](C)O[C@@H](C)C3)c(F)c2CNC(=O)c2cc(C)on2)cc(C)n1` (relative stereo) [Compound 62], 708 nM; in that of `Cc1cc(-c2ccc(C3C[C@@H](C)O[C@@H](C)C3)c(F)c2CNC(=O)c2conc2C)cc(C)n1` (relative stereo) [Compound 63], 1070 nM.
Still for that read-out and setting: in the case of `Cc1cc(-c2ccc(N3C[C@@H](C)O[C@@H](C)C3)cc2CNC(=O)c2ccc(F)cc2C)cc(C)n1` [Compound 5] it was 9.33 nM.
Consider `Cc1cc(-c2ccc(N3C[C@@H](C)O[C@@H](C)C3)cc2CNC(=O)CC(F)(F)F)cc(C)n1` [Compound 7], for which the Emax (Ca2+ assay as described in D.1) came to 287%.
Turning to `Cc1cc(-c2ccc(N3C[C@@H](C)O[C@@H](C)C3)cc2CNC(=O)C(C)C)ccn1` [Compound 9], where the note is “Ca2+ assay as described in D.1”, the EC50 was 240 nM.
Same read-out and setting: then `Cc1cc(-c2ccc(N3C[C@@H](C)O[C@@H](C)C3)cc2CNC(=O)c2cc(C)on2)ccn1` [Compound 10], with 1230 nM.
With `Cc1cc(-c2ccc(N3C[C@@H](C)O[C@@H](C)C3)cc2CNC(=O)c2ccc(F)cc2C)ccn1` [Compound 11], the Emax was found to be 912%. Besides, the EC50 (Ca2+ assay as described in D.1) is 9.33 nM.
For `Cc1cc(-c2ccc(N3C[C@@H](C)O[C@@H](C)C3)cc2CNC(=O)c2conc2C)ccn1` [Compound 12], in that order: 562% and 166 nM.
Regarding `Cc1cc(-c2ccc(N3C[C@@H](C)O[C@@H](C)C3)cc2CNC(=O)CC2CC2)ccn1` [Compound 13], the Emax is 915%. Moreover, under “Ca2+ assay as described in D.1”, the EC50 was 282 nM.
Regarding `Cc1cc(-c2ccc(N3C[C@@H](C)O[C@@H](C)C3)cc2CNC(=O)C2CC2)ccn1` [Compound 14], the EC50 (Ca2+ assay as described in D.1) was 589 nM.
Same read-out and setting: in the case of `CC(C)C(=O)NCc1cc(N2C[C@@H](C)O[C@@H](C)C2)ccc1-c1ccncc1` [Compound 15] it was 1100 nM.
As to `Cc1nocc1C(=O)NCc1cc(N2C[C@@H](C)O[C@@H](C)C2)ccc1-c1ccncc1` [Compound 17], the Emax is 681%. Further, under “Ca2+ assay as described in D.1”, the EC50 was 1660 nM.
For `Cc1cc(-c2ccc(N3C[C@H](C)C[C@H](C)C3)cc2CNC(=O)c2cc(C)on2)cc(C)n1` [Compound 18], in that order: 136% and 288 nM.
For `Cc1cc(-c2ccc(N3C[C@H](C(F)(F)F)C[C@H](C(F)(F)F)C3)cc2CNC(=O)c2conc2C)cc(C)n1` [Compound 19], in that order: 266% and 50.1 nM.
For `Cc1cc(-c2ccc(N3C[C@H](C(F)(F)F)C[C@H](C(F)(F)F)C3)cc2CNC(=O)c2ccc(F)cc2C)cc(C)n1` [Compound 20], in that order: 466% and 11 nM.
As to `Cc1cc(-c2ccc(N3C[C@H](C(F)(F)F)C[C@H](C(F)(F)F)C3)cc2CNC(=O)c2cc(C)on2)cc(C)n1` [Compound 21], the Emax stood at 541%. For the same compound, the EC50 (Ca2+ assay as described in D.1) is 126 nM.
In the case of `Cc1cc(-c2ccc(N3C[C@H](C(F)(F)F)C[C@H](C(F)(F)F)C3)cc2CNC(=O)CC2CC2)cc(C)n1` [Compound 22], the Emax worked out at 458%. In addition, the EC50 (Ca2+ assay as described in D.1) was 16.2 nM.
Regarding `Cc1cc(-c2ccc(N3C[C@H](C(F)(F)F)C[C@H](C(F)(F)F)C3)cc2CNC(=O)C(C)C)cc(C)n1` [Compound 23], the Emax is 322%. Moreover, the EC50 (Ca2+ assay as described in D.1) is 15.8 nM.
For `Cc1cc(-c2ccc(N3CCOCC3)cc2CNC(=O)CC2CC2)cc(C)n1` [Compound 24], in that order: 466% and 1780 nM.
On the same counts, the results for `Cc1cc(-c2ccc(N3CCOCC3)cc2CNC(=O)c2cc(C)on2)cc(C)n1` [Compound 25] are 654% and 6170 nM.
On the same counts, the results for `Cc1cc(-c2ccc(N3CCOCC3)cc2CNC(=O)c2conc2C)cc(C)n1` [Compound 26] are 202% and 457 nM.
Consider `Cc1cc(-c2ccc(N3CCOCC3)cc2CNC(=O)c2ccc(F)cc2C)cc(C)n1` [Compound 27], for which the Emax was found to be 419%. Moreover, where the note is “Ca2+ assay as described in D.1”, the EC50 is 57.5 nM.
Turning to `Cc1cc(-c2ccc(N3CCOCC3)cc2CNC(=O)CC(F)(F)F)cc(C)n1` [Compound 28], the Emax (Ca2+ assay as described in D.1) is 111%.
Consider `Cc1cc(-c2ccc(N3CCOCC3)cc2CNC(=O)C(C)C)cc(C)n1` [Compound 29], for which the Emax worked out at 256%. In addition, the EC50 (Ca2+ assay as described in D.1) was 813 nM.
For the compound `Cc1cc(-c2ccc(N3CCOCC3)cc2CNC(=O)C2CC2)cc(C)n1` [Compound 30], the Emax (Ca2+ assay as described in D.1) came to 260%.
With `Cc1cc(-c2ccc(N3CCOCC3)cc2CNC(=O)c2ccc(F)cc2C)ccn1` [Compound 31], the Emax came to 576%. Besides, the EC50 (Ca2+ assay as described in D.1) is 479 nM.
For the compound `Cc1cc(-c2ccc(N3CCCC(C(F)(F)F)C3)cc2CNC(=O)c2conc2C)cc(C)n1` (stereo not drawn) [Compound 32], under “Ca2+ assay as described in D.1”, the Emax is 72.4%.
For the compound `Cc1cc(-c2ccc(N3CCCC(C(F)(F)F)C3)cc2CNC(=O)c2ccc(F)cc2C)cc(C)n1` (stereo not drawn) [Compound 33], the Emax was 278%. The EC50 (Ca2+ assay as described in D.1) is 245 nM.
On the same counts, the results for `Cc1cc(-c2ccc(N3CCCC(C(F)(F)F)C3)cc2CNC(=O)c2cc(C)on2)cc(C)n1` (stereo not drawn) [Compound 34] are 405% and 537 nM.
On the same counts, the results for `Cc1cc(-c2ccc(N3CCCC(C(F)(F)F)C3)cc2CNC(=O)CC2CC2)cc(C)n1` (stereo not drawn) [Compound 35] are 389% and 26.3 nM.
With `Cc1cc(-c2ccc(N3CCCC(C(F)(F)F)C3)cc2CNC(=O)C(C)C)cc(C)n1` (stereo not drawn) [Compound 36], the Emax (Ca2+ assay as described in D.1) came out at 131%.
Turning to `Cc1cc(-c2ccc(N3C[C@@H](C)O[C@@H](C)C3)c(F)c2CNC(=O)CC2CC2)cc(C)n1` [Compound 37], the EC50 (Ca2+ assay as described in D.1) is 295 nM.
On the same count and under the same terms, in the case of `Cc1cc(-c2ccc(N3C[C@@H](C)O[C@@H](C)C3)c(F)c2CNC(=O)c2cc(C)on2)cc(C)n1` [Compound 38] it was 977 nM; in that of `Cc1cc(-c2ccc(N3C[C@@H](C)O[C@@H](C)C3)c(F)c2CNC(=O)c2conc2C)cc(C)n1` [Compound 39], 832 nM.
Same read-out and setting: in the case of `Cc1cc(-c2ccc(N3C[C@@H](C)O[C@@H](C)C3)c(F)c2CNC(=O)c2ccc(F)cc2C)cc(C)n1` [Compound 40] it was 41.7 nM.
